{"source": "ChEMBL document CHEMBL1154793", "about": "“The lecanindoles, nonsteroidal progestins from the terrestrial fungus Verticillium lecanii 6144” (J Nat Prod, 2009)", "key": {"[1]": {"biological_target": "T1, Glucocorticoid receptor (Homo sapiens, UniProt P04150)", "T1 sequence (P04150 whole entry)": "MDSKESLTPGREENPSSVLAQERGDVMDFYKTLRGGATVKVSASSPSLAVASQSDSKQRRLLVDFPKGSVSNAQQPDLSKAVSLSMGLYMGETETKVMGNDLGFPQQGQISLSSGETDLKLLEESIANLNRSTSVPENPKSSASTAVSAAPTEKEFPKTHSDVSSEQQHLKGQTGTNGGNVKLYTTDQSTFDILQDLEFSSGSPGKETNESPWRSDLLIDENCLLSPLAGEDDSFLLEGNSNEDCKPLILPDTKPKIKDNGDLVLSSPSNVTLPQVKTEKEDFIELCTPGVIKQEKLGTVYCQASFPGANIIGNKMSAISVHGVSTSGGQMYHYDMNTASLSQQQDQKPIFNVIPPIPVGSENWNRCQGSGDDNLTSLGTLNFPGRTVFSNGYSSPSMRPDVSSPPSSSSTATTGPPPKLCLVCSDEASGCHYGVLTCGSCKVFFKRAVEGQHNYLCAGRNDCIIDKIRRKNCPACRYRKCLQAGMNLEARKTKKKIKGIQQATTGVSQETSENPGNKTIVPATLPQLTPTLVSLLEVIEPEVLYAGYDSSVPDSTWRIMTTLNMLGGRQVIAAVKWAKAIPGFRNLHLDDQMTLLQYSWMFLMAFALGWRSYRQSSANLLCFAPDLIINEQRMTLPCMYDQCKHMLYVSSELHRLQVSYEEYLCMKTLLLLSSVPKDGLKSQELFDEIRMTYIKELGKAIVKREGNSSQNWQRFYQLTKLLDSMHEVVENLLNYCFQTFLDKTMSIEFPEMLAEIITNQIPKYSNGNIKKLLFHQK", "assay": "Agonist activity at glucocorticoid receptor ligand binding domain expressed in african green monkey COS7 cells co-transfected with Gal4-LBD up to 10 uM by luciferase reporter gene assay", "assay_type": "cell-based", "details": "cos-7; call rule not given here"}, "[2]": {"biological_target": "T2, Mineralocorticoid receptor (Homo sapiens, UniProt P08235)", "T2 sequence (P08235 whole entry)": "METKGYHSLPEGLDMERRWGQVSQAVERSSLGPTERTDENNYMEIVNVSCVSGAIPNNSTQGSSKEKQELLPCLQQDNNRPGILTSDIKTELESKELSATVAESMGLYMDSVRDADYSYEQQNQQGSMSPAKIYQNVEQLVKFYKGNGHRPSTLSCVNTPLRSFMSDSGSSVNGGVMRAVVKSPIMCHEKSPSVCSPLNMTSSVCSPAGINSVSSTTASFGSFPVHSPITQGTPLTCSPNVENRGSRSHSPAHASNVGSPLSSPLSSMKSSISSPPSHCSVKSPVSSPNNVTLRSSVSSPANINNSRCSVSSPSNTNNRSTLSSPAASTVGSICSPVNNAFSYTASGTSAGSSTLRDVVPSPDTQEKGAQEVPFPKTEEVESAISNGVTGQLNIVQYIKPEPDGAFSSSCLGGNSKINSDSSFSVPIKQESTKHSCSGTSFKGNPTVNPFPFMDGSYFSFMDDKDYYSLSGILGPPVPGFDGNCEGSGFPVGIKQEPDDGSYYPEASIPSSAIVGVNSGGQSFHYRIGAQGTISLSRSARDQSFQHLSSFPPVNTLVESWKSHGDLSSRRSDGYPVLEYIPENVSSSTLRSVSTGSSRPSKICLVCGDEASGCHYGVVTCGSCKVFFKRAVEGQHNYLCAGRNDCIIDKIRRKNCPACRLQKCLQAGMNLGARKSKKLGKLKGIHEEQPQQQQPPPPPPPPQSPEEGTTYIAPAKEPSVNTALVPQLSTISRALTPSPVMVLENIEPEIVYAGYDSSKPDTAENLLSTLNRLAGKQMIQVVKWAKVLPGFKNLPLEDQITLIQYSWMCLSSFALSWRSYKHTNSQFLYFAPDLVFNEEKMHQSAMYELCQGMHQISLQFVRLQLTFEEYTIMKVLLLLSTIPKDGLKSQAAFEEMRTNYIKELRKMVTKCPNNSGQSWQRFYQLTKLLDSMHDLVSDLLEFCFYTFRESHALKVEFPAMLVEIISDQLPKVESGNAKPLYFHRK", "assay": "Agonist activity at mineralocorticoid receptor ligand binding domain expressed in african green monkey COS7 cells co-transfected with Gal4-LBD up to 10 uM by luciferase reporter gene assay", "assay_type": "cell-based", "details": "cos-7"}, "[3]": {"biological_target": "T3, Estrogen receptor beta (Homo sapiens, UniProt Q92731)", "T3 sequence (Q92731 whole entry, the tested form may be a part)": "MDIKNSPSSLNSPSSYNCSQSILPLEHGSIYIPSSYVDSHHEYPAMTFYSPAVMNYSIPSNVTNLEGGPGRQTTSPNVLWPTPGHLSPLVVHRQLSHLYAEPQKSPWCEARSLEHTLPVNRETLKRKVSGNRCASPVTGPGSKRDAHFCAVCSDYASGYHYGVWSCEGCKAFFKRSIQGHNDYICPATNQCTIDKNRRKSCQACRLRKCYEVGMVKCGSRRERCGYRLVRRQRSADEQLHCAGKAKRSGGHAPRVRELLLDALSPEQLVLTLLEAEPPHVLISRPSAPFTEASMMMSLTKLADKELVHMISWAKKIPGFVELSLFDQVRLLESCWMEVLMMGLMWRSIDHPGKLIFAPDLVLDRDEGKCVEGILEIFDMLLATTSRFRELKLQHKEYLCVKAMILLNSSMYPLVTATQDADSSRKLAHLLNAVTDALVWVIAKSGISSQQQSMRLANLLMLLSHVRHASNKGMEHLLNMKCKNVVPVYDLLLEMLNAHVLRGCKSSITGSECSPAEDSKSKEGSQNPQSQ", "assay": "Agonist activity at estrogen receptor beta ligand binding domain expressed in african green monkey COS7 cells co-transfected with Gal4-LBD up to 10 uM by luciferase reporter gene assay", "assay_type": "cell-based", "details": "cos-7"}, "[4]": {"biological_target": "T3, Estrogen receptor beta", "assay": "Antagonist activity at estrogen receptor beta ligand binding domain expressed in african green monkey COS7 cells co-transfected with Gal4-LBD by luciferase reporter gene assay relative to control", "assay_type": "cell-based", "parameters": "scale not given: the % may be the effect or the level left", "details": "COS-7"}, "[5]": {"biological_target": "T4, Progesterone receptor (Homo sapiens, UniProt P06401)", "T4 sequence (P06401 whole entry)": "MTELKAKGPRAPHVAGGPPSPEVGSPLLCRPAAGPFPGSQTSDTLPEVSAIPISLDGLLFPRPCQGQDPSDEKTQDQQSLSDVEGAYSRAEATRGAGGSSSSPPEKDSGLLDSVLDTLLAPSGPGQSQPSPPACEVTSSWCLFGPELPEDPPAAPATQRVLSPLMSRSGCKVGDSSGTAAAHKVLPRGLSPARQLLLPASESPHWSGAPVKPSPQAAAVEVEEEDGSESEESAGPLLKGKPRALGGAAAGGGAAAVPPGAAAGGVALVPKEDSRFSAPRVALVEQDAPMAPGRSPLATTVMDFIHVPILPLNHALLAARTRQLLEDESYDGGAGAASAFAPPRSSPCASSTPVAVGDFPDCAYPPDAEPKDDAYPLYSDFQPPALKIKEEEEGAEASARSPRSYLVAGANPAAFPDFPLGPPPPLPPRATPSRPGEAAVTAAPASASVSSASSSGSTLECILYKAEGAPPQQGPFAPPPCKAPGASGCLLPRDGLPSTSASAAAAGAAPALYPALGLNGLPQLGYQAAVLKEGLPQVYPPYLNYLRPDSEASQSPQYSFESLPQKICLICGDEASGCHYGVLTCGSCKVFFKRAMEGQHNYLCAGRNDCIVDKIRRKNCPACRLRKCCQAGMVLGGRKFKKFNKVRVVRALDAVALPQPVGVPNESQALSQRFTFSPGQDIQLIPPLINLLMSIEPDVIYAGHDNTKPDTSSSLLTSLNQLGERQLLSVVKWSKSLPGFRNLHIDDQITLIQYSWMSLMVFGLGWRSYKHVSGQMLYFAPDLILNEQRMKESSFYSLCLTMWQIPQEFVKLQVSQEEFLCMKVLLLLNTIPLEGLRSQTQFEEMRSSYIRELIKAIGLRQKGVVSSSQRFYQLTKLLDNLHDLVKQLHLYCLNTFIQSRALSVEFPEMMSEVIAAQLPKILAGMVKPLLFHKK"}}}
{"smiles": "CC1(C)[C@H](O)CC[C@]2(C)[C@@]3(C)c4[nH]c5ccccc5c4C[C@@H]3CC[C@@]12O", "note": "[LECANINDOLE D]", "values": [{"measurement": "EC50", "setting": "[1]", "result": "Not Active"}, {"measurement": "EC50", "setting": "[2]", "result": "Not Active"}, {"measurement": "EC50", "setting": "[3]", "result": "Not Active"}, {"measurement": "Activity", "setting": "[4]", "result": 64, "unit": "%"}, {"measurement": "EC50", "setting": "[5]", "result": 1.1, "unit": "nM"}]}
{"smiles": "CC1(C)C(=O)CC[C@]2(C)[C@@]3(C)c4[nH]c5ccccc5c4C[C@@H]3CC[C@@]12O", "note": "[LECANINDOLE B]", "values": [{"measurement": "EC50", "setting": "[1]", "result": "Not Active"}, {"measurement": "EC50", "setting": "[2]", "result": "Not Active"}, {"measurement": "EC50", "setting": "[3]", "result": "Not Active"}, {"measurement": "Activity", "setting": "[4]", "result": 12, "unit": "%"}, {"measurement": "EC50", "setting": "[5]", "result": 0.3, "unit": "nM"}]}
